Legend:
Assay type in all cases: cell-based
[1] = test system: Blastobacter sp. A 17 p-4; experiment: Promoters for the production of Blastobacter sp. A 17 p-4 decarbamylase; details: for decarbamylase yield of Blastobacter sp. A 17 p-4, effect of metal ions: 2 mM metal ion plus 0.15% (w/v) uracil in medium D, 4 days at 28° C.; for decarbamylase yield of Blastobacter sp. A 17 p-4: 0.15% (w/v) additive in medium D, 3 days at 28° C., D-HPG formation at 40° C.
Protocol: The strain was cultured at 28° C. for 3 days in the medium D (as defined in Example 4) additionally containing 0.15% (w/v) of a substance as listed in FIG. 7. Then, D-HPG was formed in the same way as in Example 4 but that the reaction temperature was 40° C., and quantitated by HPLC.
In order to examine the effects of metal ions on the enzyme productivity, the strain was cultured at 28° C. for 4 days in the medium D additionally containing 0.15% (w/v) of uracil and 2 mM a metal ion as listed in FIG. 8. It was found by quantitating D-HPG that ions such as Fe^2+, Fe^3+, Li^+, Cs^+, Be^2+, Mg^2+, Mn^2+, Co^2+ and Al^3+ increased the decarbamylase yield.

[2] = test system: decarbamylase of Comamonas sp. E 222 C; experiment: Substrate specificity of decarbamylase, cells of Comamonas sp. E 222 C; details: cell suspension, 24 hours at 30° C.; for Substrate conversion, Comamonas sp. E 222 c (conversion to amino acids): 1% (w/v) substrate, 200 mM potassium phosphate
Protocol: For the determination of substrate specificity of decarbamylase of Comamonas sp. E 222 C and Blastobacter sp. A 17 p-4, these strains were cultured at 28° C. in the medium C (as described in Example 2) for 1 day (E 222 C) and 7 days (A 17 p-4). Three ml of the culture medium was centrifuged to separate the microorganism, which was suspended in 300 μl of a substrate solution (200 mM potassium phosphate, 1% (w/v) a substrate as listed below) and incubated for 24 hours at 30° C. (E 222 C) or 50° C. (A 17 p-4).

[3] = test system: decarbamylase of Blastobacter sp. A 17 p-4; experiment: Substrate specificity of decarbamylase, cells of Blastobacter sp. A 17 p-4; details: 1% (w/v) substrate, 200 mM potassium phosphate, cell suspension, 24 hours at 30° C.
Protocol: For the determination of substrate specificity of decarbamylase of Comamonas sp. E 222 C and Blastobacter sp. A 17 p-4, these strains were cultured at 28° C. in the medium C (as described in Example 2) for 1 day (E 222 C) and 7 days (A 17 p-4). […] (E 222 C) or 50° C. (A 17 p-4).

[4] = test system: Comamonas sp. E 222 C; experiment: Promoters for the production of Comamonas sp. E 222 C decarbamylase; details: 0.15% (w/v) additive in medium D, 2 days at 28° C.; D-HPG from 35 mM C-D-HPG, 24 hours at 30° C.
Protocol: The strain was cultured in a nutrient medium D (1 g/l KH2 PO4, 1 g/l K2 HPO4, 0.3 g/l MgSO4 ·7H2 O, 3 g/l yeast extract, 3 g/l meat extract, 10 g/l glycerol, 2 g/l polypeptone; pH 7.0) for 2 days at 28° C. The culture medium additionally contained a substance as listed in FIG. 2 in a concentration of 0.15% (w/v).
One ml of the culture medium was centrifuged to collect the microorganism, which was suspended in 100 μl of a substrate solution (35 mM C-D-HPG, 200 mM potassium phosphate; pH 7.0). After 24 hours at 30° C., D-HPG was quantitated by HPLC according to the procedure described in Example 2.

Compound | Substrate conversion, Comamonas sp. E 222 c (conversion to amino acids) [2] | Substrate conversion, Blastobacter sp. A 17 p-4 (conversion to amino acids) [3] | further results
[Be+2] [Be^2+] | – | – | decarbamylase yield of Blastobacter sp. A 17 p-4, effect of metal ions [1]: increased
[Fe+2] [Fe^2+] | – | – | decarbamylase yield of Blastobacter sp. A 17 p-4, effect of metal ions [1]: increased
NC(=O)N[C@H](Cc1ccccc1)C(=O)O [N-Carbamyl-D-phenylalanine, N-carbamyl-D-phenylalanine] | ++++ (++++: 100%) | +++ (+++: <80%) | –
[Cs+] [Cs^+] | – | – | decarbamylase yield of Blastobacter sp. A 17 p-4, effect of metal ions [1]: increased
[Mg+2] [Mg^2+] | – | – | decarbamylase yield of Blastobacter sp. A 17 p-4, effect of metal ions [1]: increased
NC(=O)N[C@H](CO)C(=O)O [N-Carbamyl-D-serine] | + (+: <10%) | - (-: 0%) | –
CSCCC(NC(N)=O)C(=O)O (racemic) [N-Carbamyl-DL-methionine, N-carbamyl-DL-methionine] | ++ (++: <50%) | ++ (++: <50%) | decarbamylase productivity of Comamonas sp. E 222 C [4]: improved
CN(CC(=O)O)C(N)=O [N-Carbamyl-sarcosine] | - (-: 0%) | - (-: 0%) | –
[Al+3] [Al^3+] | – | – | decarbamylase yield of Blastobacter sp. A 17 p-4, effect of metal ions [1]: increased
[Li+] [Li^+] | – | – | decarbamylase yield of Blastobacter sp. A 17 p-4, effect of metal ions [1]: increased
[Co+2] [Co^2+] | – | – | decarbamylase yield of Blastobacter sp. A 17 p-4, effect of metal ions [1]: increased
C[C@@H](O)[C@H](NC(N)=O)C(=O)O (racemic) [N-Carbamyl-DL-threonine] | + (+: <10%) | - (-: 0%) | –
CC1NC(=O)NC1=O (racemic) [DL-5-Methylhydantoin] | - (-: 0%) | ++ (++: <50%) | –
NC(=O)NCCC(=O)O [β-Ureidopropionic acid] | ++++ (++++: 100%) | - (-: 0%) | hydrolysis by Comamonas sp. E 222 C, in words [2]: could hydrolize; decarbamylase yield of Blastobacter sp. A 17 p-4 [1]: increased; decarbamylase productivity of Comamonas sp. E 222 C [4]: improved
NC(N)=O [urea] | – | – | decarbamylase productivity of Comamonas sp. E 222 C [4]: improved
NC(=O)N[C@@H](C(=O)O)c1ccc(O)cc1 [N-Carbamyl-D-p-hydroxyphenylglycine] | +++ (+++: <80%) | ++ (++: <50%) | –
CC(C)[C@@H](NC(N)=O)C(=O)O [N-Carbamyl-D-valine] | ++++ (++++: 100%) | +++ (+++: <80%) | –
CCCCC(NC(N)=O)C(=O)O (racemic) [N-Carbamyl-DL-norleucine] | ++ (++: <50%) | ++ (++: <50%) | –
CC(C)C[C@@H](NC(N)=O)C(=O)O [N-Carbamyl-D-leucine] | ++++ (++++: 100%) | +++ (+++: <80%) | –
CCCC(NC(N)=O)C(=O)O (racemic) [N-Carbamyl-DL-norvaline] | ++ (++: <50%) | ++ (++: <50%) | –
NC(=O)N[C@@H](C(=O)O)c1ccccc1 [N-Carbamyl-D-phenylglycine] | +++ (+++: <80%) | +++ (+++: <80%) | –
O=C1CCNC(=O)N1 [dihydrouracil] | – | – | decarbamylase yield of Blastobacter sp. A 17 p-4 [1]: increased
O=C1NC(=O)C(c2ccc(O)cc2)N1 (racemic) [DL-5-p-Hydroxyphenylhydantoin] | - (-: 0%) | ++ (++: <50%) | –
C[C@@H](NC(N)=O)C(=O)O [N-Carbamyl-D-alanine] | ++++ (++++: 100%) | +++ (+++: <80%) | –
O=C1NC(=O)C(c2ccccc2)N1 (racemic) [DL-5-Phenylhydantoin] | - (-: 0%) | ++ (++: <50%) | –
NC(=O)NC(CC(=O)O)C(=O)O (centres unmarked) [Ureidosuccinic acid] | - (-: 0%) | - (-: 0%) | –
O=c1cc[nH]c(=O)[nH]1 [uracil] | – | – | decarbamylase yield of Blastobacter sp. A 17 p-4 [1]: increased
[Mn+2] [Mn^2+] | – | – | decarbamylase yield of Blastobacter sp. A 17 p-4, effect of metal ions [1]: increased
N[C@@H](C(=O)O)c1ccccc1 [D-phenylglycine] | – | – | decarbamylase productivity of Comamonas sp. E 222 C [4]: improved

Reference: patent US5902736A, “Process for the production of D-α-amino acids by hydrolysis of the corresponding N-carbamyl derivative” (priority 1992, dated 1999)
